Experimental data as given in PubChem BioAssay (NCI).
Several values for one entry are separate records, joined by “and”; a condition that tells them apart may be missing. Identical values can stand only once.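 48-hour exposure; five concentrations; linearly interpolated endpoints. The concentration for 50% growth inhibition is given as GI50. TGI marks complete inhibition of growth.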

Legend:
Test in all cases: DTP human tumour cell line panel, 48 h
[1] = tested on: NCI-H23 lung
[2] = tested on: HCT-15 colon
[3] = tested on: U251 CNS
[4] = tested on: HOP-18 NSCLC
[5] = tested on: UACC-62 melanoma
[6] = tested on: SNB-75 CNS
[7] = tested on: IGROV1 ovarian
[8] = tested on: ACHN renal
[9] = tested on: OVCAR-3 ovarian
[10] = tested on: KM12 colon

Structure (SMILES) | TGI [1] | TGI [2] | TGI [3] | TGI [4] | TGI [5] | TGI [6] | TGI [7] | TGI [8] | TGI [9] | TGI [10] | GI50 [1] [µM] | GI50 [2] [µM] | GI50 [3] [µM] | GI50 [4] [µM] | GI50 [5] [µM] | GI50 [6] [µM] | GI50 [7] | GI50 [8] [µM] | GI50 [9] [µM] | GI50 [10] [µM]
O=C(O)c1cc(Cl)cc(NC(=O)C(Cl)Cl)c1Cl | > 100 µM | > 100 µM | > 100 µM | > 100 µM | > 100 µM | > 100 µM | > 100 µM | > 100 µM | > 100 µM | > 100 µM |  |  |  |  |  |  |  |  |  | 
c1ccc2c(c1)CCCc1cc3ccccc3nc1-2 | > 100 µM | > 100 µM | > 100 µM | > 100 µM | > 100 µM | > 100 µM | > 100 µM | > 100 µM | > 100 µM | > 100 µM |  |  |  |  |  |  |  |  |  | 
Cc1ccc(NC(=O)CCC(=O)C2CC(=O)CC/C2=N\NC(=O)c2cc3ccccc3cc2O)cc1C (stereo not given) | 38 µM | > 100 µM | > 100 µM | > 100 µM | 33.9 µM | > 100 µM | 66.9 µM | > 100 µM | 45.6 µM | > 100 µM |  |  |  |  |  |  |  |  |  | 
CC1OC(=O)N(CCCC=C2SCCCS2)C1=O (stereo not given) | > 100 µM | > 100 µM | > 100 µM | > 100 µM | > 100 µM | > 100 µM | > 100 µM | > 100 µM | > 100 µM | > 100 µM |  |  |  |  |  |  |  |  |  | 
O=c1[nH]c(=O)n(C2CC(O)C(CO)O2)cc1C#Cc1ccc(C(F)(F)F)cc1 (stereo not given) | > 100 µM | > 100 µM | > 100 µM | > 100 µM | > 100 µM | > 100 µM | > 100 µM | > 100 µM | > 100 µM | > 100 µM |  |  |  |  |  |  |  |  |  | 
CC1=CC2=C(C)C3(CC3)[C@@](C)(O)C(=O)C2=C1 | 0.186 µM | 0.454 µM | 0.507 µM | 0.528 µM | 0.44 µM | 0.425 µM | > 0.979 µM | 0.379 µM | 0.352 µM | > 0.918 µM |  |  |  |  |  |  |  |  |  | 
O=C1OCC(C(=O)c2cccc(O)c2)C1=O (stereo not given) | > 100 µM | > 100 µM | > 100 µM | > 100 µM | > 100 µM | > 100 µM | > 100 µM | > 100 µM | > 100 µM | > 100 µM |  |  |  |  |  |  |  |  |  | 
CC(C)c1ccc(/C=C(\NC(=O)c2ccccc2)c2nc3ccccc3[nH]2)cc1 | 75.3 µM | > 100 µM | > 100 µM | > 100 µM | > 100 µM | > 100 µM | > 100 µM | > 100 µM | > 100 µM | > 100 µM |  |  |  |  |  |  |  |  |  | 
COC(=O)/C(C#N)=C1\N=NNN1CCCN1CCOCC1 | > 100 µM | > 100 µM | > 100 µM | > 100 µM | > 100 µM | > 100 µM | > 100 µM | > 100 µM | > 100 µM | > 100 µM |  |  |  |  |  |  |  |  |  | 
CCOC(=O)c1cnc2[nH]c(=O)c3ccccc3n2c1=O | > 100 µM | > 100 µM | > 100 µM | > 100 µM | > 100 µM | > 100 µM | > 100 µM | > 100 µM | > 100 µM | > 100 µM |  |  |  |  |  |  |  |  |  | 
CC1=NN(C(=O)CC(=O)Nc2cccc(Cl)c2)C(=O)C1N=Nc1ccc(S(N)(=O)=O)cc1 (stereo not given) | > 100 µM | > 100 µM | > 100 µM | > 100 µM | > 100 µM | > 100 µM | > 100 µM | > 100 µM | > 100 µM | > 100 µM |  |  |  |  |  |  |  |  |  | 
Cn1c(=O)c2c3oc(=O)cc(O)c3c(=O)n3c4ccccc4n(c1=O)c23 | > 100 µM | > 100 µM | > 100 µM | > 100 µM | > 100 µM | 87.8 µM | > 100 µM | > 100 µM | 78.6 µM | > 100 µM |  |  |  |  |  |  |  |  |  | 
COc1ccc2cccc(C(=N)c3ccc(C)c4c3CCC4)c2c1 | 19.6 µM | 20.6 µM | 21.4 µM | 15.5 µM | 15.8 µM | 27.2 µM | 19.2 µM | 21.7 µM | 17.6 µM | 22.9 µM |  |  |  |  |  |  |  |  |  | 
CC(=O)NC1C(OCc2ccccc2)OC(COC(=O)CCCCCCCCCCNC(=O)c2cccc3c(=O)c4ccccc4[nH]c23)C(O)C1OC(C)C(=O)NC(C)C(=O)NC(CCC(N)=O)C(N)=O (stereo not given) | > 100 µM | > 100 µM | > 100 µM | > 100 µM | > 100 µM | > 100 µM | > 100 µM | > 100 µM | > 100 µM | > 100 µM |  |  |  |  |  |  |  |  |  | 
Oc1cc2cc(-c3ccccc3)[nH]c2c2ccccc12 | 36.6 µM | > 100 µM | > 100 µM | > 96 µM | 29.4 µM | > 100 µM | > 100 µM | > 88.3 µM | > 61.4 µM | > 100 µM |  |  |  |  |  |  |  |  |  | 
Cc1cc(N(CCC#N)S(=O)(=O)c2ccccc2)ccc1C=O | > 100 µM | > 100 µM | > 100 µM | > 100 µM | > 100 µM | > 100 µM | > 100 µM | > 100 µM | > 100 µM | > 100 µM |  |  |  |  |  |  |  |  |  | 
O=C1c2c(O)cccc2C(C(=O)CCCCC(=O)C2c3cccc(O)c3C(=O)c3c(O)cccc32)c2cccc(O)c21 | 1.56 µM and 2.59 µM | 2.6 µM and 5.12 µM | 1.01 µM and 2.22 µM | 1.79 µM and 1.88 µM | 2.48 µM and 5.78 µM | 3.44 µM and 3.32 µM | 1.74 µM and 3.7 µM | 1.95 µM and 6.17 µM | 1.3 µM and 2.53 µM | 1.31 µM and 1.68 µM | 1.25 | 1.75 | 1.02 | 0.996 | 1.62 | 1.4 | 0.664 µM and 1.37 µM | 2.04 | 1.39 | 0.884
O=C1[C@H]2C(c3ccccc3)=NN(C(=O)c3ccccc3)[C@H]2C(=O)N1c1ccccc1 | > 100 µM | > 100 µM | > 100 µM | > 100 µM | > 100 µM | > 100 µM | > 100 µM | > 100 µM | > 100 µM | > 100 µM |  |  |  |  |  |  |  |  |  | 
COc1ccc(S(=O)(=O)N/N=C/C(=O)O)cc1 | 867 µM | 1080 µM | 1200 µM | > 1250 µM | 984 µM | > 1250 µM | 1060 µM | 970 µM | 1160 µM | > 1170 µM |  |  |  |  |  |  |  |  |  | 
O=C(CCCCCCCCC(=O)OCC1OC(n2cnc3c(=O)[nH]cnc32)C(O)C1O)OCC1OC(n2cnc3c(=O)[nH]cnc32)C(O)C1O (stereo not given) | > 100 µM | > 100 µM | > 100 µM | > 100 µM | > 100 µM | > 100 µM | > 100 µM | > 100 µM | > 100 µM | > 100 µM |  |  |  |  |  |  |  |  |  | 
